Patent US5464865A, “4-aryl- and 4-arylthio-5-hydroxy-2(5H)-furanones as inhibitors of phospholipase A2” (Ortho Pharmaceutical Corporation, priority 1993, dated 1995)
pIC50: −log10 of the molar value.

Tests used:
[1] = target: T1, human platelet phospholipase A2 (Homo sapiens, UniProt P14555); test: Inhibition of human platelet phospholipase A2 (14C-oleate E. coli substrate); format: biochemical; conditions: for pIC50: pH 7.0, 37°, 60 min incubation, read-out: Inhibition of PLA2, IC50; for inhibition at 50 µM: read-out: Inhibition of PLA2, % Inhibition @ 50 μM
T1 construct: a preparation of human platelet phospholipase A2; from tissue; host or cells: human platelets
T1 sequence (P14555 21-144): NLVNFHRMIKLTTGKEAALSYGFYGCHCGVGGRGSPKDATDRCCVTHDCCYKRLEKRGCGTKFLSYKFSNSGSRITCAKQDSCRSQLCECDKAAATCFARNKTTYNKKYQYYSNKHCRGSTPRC
Procedure: The activity of the compounds of the invention against phospholipase A2 is determined using a preparation of human platelet phospholipase A2 with a specific activity of 180 nmol/min/mg as the enzyme source. Polypropylene 15-ml test tubes are utilized as the reaction vessels. All drug samples are run in duplicate, with "blank" and "control" (no test compound) groups run in triplicate. […] Test compounds are dissolved in DMSO, and diluted to a projected final concentration of either 50 or 10 μM in 550 μl HEPES buffer at pH 7.0. A 1:7 dilution of human platelet PLA2 in HEPES buffer (5 μl) is added to each test tube, followed by gentle vortexing for 3 seconds. The reaction tubes containing drug, buffer, and enzyme are preincubated for 15 min at 37°, followed by the addition of 25 μl of ^14 C-oleate E. coli substrate. Details regarding this substrate may be found in a publication by S. Ghosh and R. Franson, Biochem. Cell. Biol., 70, 43 (1992), and references therein.
The tubes are immediately vortexed at moderate speed for 3 sec, followed by a 60 min incubation at 37° in a shaking water bath. The reaction is stopped by the addition of 3 ml of a 1:2 chloroform-methanol mixture. Additional water (1.5 ml) and chloroform (1.0 ml) are added, followed by vortexing. The lower phase is removed with a polypropylene transfer pipette, and transferred to a 13×100 mm polypropylene test tube. The organic solvent is evaporated with a stream of nitrogen, the residue is redissolved in 30 μl of a 9:1 chloroform-methanol mixture, and the solution is spotted on a channeled polyester-backed silica gel TLC plate, such as those available under the trade name PE SIL G available from Whatman Inc, Clifton, N.J.
The plate is developed with an 80:20:1 mixture of petroleum ether-diethyl ether-acetic acid. […] The plate is scored above the origin, cut along the score with scissors, and the reactant (origin) and product portions of each channel are put into separate scintillation vials. To each vial is added a scintillation cocktail (15 ml), preferably that sold under the trademark ECOLUME by ICN Biomedicals, Irvine Calif. The vials are shaken vigorously for 5 sec, and the radioactive ^14 C in each vial is measured with a scintillation counter, which provides the counts-per-minute (cpm) for each sample. The obtained cpm values are corrected for the "blank" values.
The percentage of phospholipid hydrolyzed is calculated by the formula:
Phospholipid converted=100×cpm products / (cpm products+cpm
The inhibition of phospholipase A2 by the test compounds is expressed as a percent inhibition relative to the control group:
% Inhibition=[…]

[2] = test system: TPA-induced inflammation in the mouse ear; test: Topical anti-inflammatory activity: TPA-induced inflammation (edema) in the mouse ear; format: in vivo, mouse (male CD-1); conditions: for inhibition in vivo at 100 µg/ear: Mus musculus, @ 100 μg, 5-6 h after TPA; for Inhibition of ear edema, IC50: multiple-dose experiment, dose for 50% inhibition of weight gain
Procedure: The topical anti-inflammatory activity of the compounds is determined by measuring the degree of inhibition of TPA-induced inflammation in the mouse ear, using essentially the procedure of C. Van Arman, Clin. Pharmacol. Ther., 16, 900 (1974). Male CD-1 mice are used at seven to nine weeks of age. 12-O-tetradecanoylphorbol acetate ([…] in 20 μl of acetone) is dispensed onto the dorsum of the left ear of each mouse, and the right ear is left untreated. Ten mice so treated serve as the control group. […]
After five to six hours, the animals are sacrificed by CO2 inhalation, the ears are removed, and 7 mm circular punch biopsies of are taken from each ear and weighed. The difference in biopsy weight between treated and untreated ears is determined, and the degree of anti-inflammatory activity is expressed in terms of the percent inhibition of ear weight increase relative to the control group. In multiple-dose experiments, varying amounts of the compound to be tested are applied along with the TPA and the results are expressed as the ED50, the dose at which a 50% inhibition of weight gain is observed.

SMILES | pIC50 [1] | inhibition at 50 µM [1] [%] | inhibition in vivo at 100 µg/ear [2] [%] | Inhibition of ear edema, IC50 [2] [µg]
O=C1C=C(c2ccc(/C=C/c3ccccc3)cc2)C(O)O1 (single isomer, unassigned) [Example 34, (E)-5-Hydroxy-4-(4-(2-phenylethenyl)phenyl)-2(5H)-furanone] | 4.52 | 91 | 33 | 
CCCCCCCCOc1ccc(C2=CC(=O)OC2O)cc1 (centres unmarked) [Example 1, 5-Hydroxy-4-(4-octyloxyphenyl)-2(5H)furanone] | 4.85 | 91 | 56 | 300
O=C1C=C(c2ccc(OCCOc3ccc4ccccc4c3)cc2)C(O)O1 (centres unmarked) [Example 12, 5-Hydroxy-4-[4-(2-(2-naphthyloxy)ethoxy)phenyl]-2(5H)furanone] |  | 47 | 45 | 
O=C1C=C(c2ccc(OCCCCCCOc3ccc4ccccc4c3)cc2)C(O)O1 (centres unmarked) [Example 13, 5-Hydroxy-4-[4-(6-(2-naphthyloxy)hexyloxy)phenyl]-2(5H)furanone] | 4.66 | 73 | 0 | 
CC1=C(CCCC/C=C(\C)COc2ccc(C3=CC(=O)OC3O)cc2)C(C)(C)CCC1 (centres unmarked) [Example 14, (E)-5-Hydroxy-4-(4-(2-methyl-7-(2,6,6-trimethyl-1-cyclohexen-1-yl)-2-heptenyloxy)phenyl)-2(5H)-furanone] |  | 87 | 4 | 
CC1=C(CC/C=C(\C)COc2ccc(C3=CC(=O)OC3O)cc2)C(C)(C)CCC1 (centres unmarked) [Example 15, (E)-5-Hydroxy-4-(4-(2-methyl-5-(2,6,6-trimethyl-1-cyclohexen-1-yl)-2-pentenyloxy)phenyl)-2(5H)-furanone] |  | 94 | 49 | 
CC1=C(C/C=C(\C)COc2ccc(C3=CC(=O)OC3O)cc2)C(C)(C)CCC1 (centres unmarked) [Example 16, (E)-5-Hydroxy-4-(4-(2-methyl-4-(2,6,6-trimethyl-1-cyclohexen-1-yl)-2-butenyloxy)phenyl)-2(5H)-furanone] | 5.05 | 100 | 43 | 106
CC1=C(C/C=C(\C)COc2cccc(C3=CC(=O)OC3O)c2)C(C)(C)CCC1 (centres unmarked) [Example 17, (E)-5-Hydroxy-4-(3-(2-methyl-4-(2,6,6-trimethyl-1-cyclohexen-1-yl)-2-butenyloxy)phenyl)-2(5H)-furanone] | 5.10 | 100 | 51 | 87
CC1=C(C/C=C(\C)CSc2ccc(C3=CC(=O)OC3O)cc2)C(C)(C)CCC1 (centres unmarked) [Example 18, (E)-5-Hydroxy-4-(4-(2-methyl-4-(2,6,6-trimethyl-1-cyclohexen-1-yl)-2-butenylthio)phenyl)-2(5H)-furanone] |  | 75 | 70 | 28
CCCCCCCCSc1ccc(C2=CC(=O)OC2O)cc1 (centres unmarked) [Example 19, 5-Hydroxy-4-(4-(octylthio)phenyl)-2(5H)furanone] | 5.30 | 98 | 20 | 
CC(C)=CCC/C(C)=C/CSc1ccc(C2=CC(=O)OC2O)cc1 (centres unmarked) [Example 23, (E)-5-Hydroxy-4-(4-(3,7-dimethyl-2,6-octadienyl)thio)phenyl-2(5H)furanone] | 5.10 | 78 | 56 | 
CC1=C(CCCCCCCOc2ccc(C3=CC(=O)OC3O)cc2)C(C)(C)CCC1 (centres unmarked) [Example 27, 5-Hydroxy-4-(4-(7-(2,6,6-trimethyl-1-cyclohexen-1-30 yl)heptyloxy)phenyl)-2(5H)-furanone] | 5.85 | 67 | 35 | 
C=CCCCCCCCCC(=O)c1ccc(C2=CC(=O)OC2O)cc1 (centres unmarked) [Example 28, 5-Hydroxy-4-(4-(1-oxoundec-10-en-1-yl)phenyl)-2(5H)-furanone] | 5.05 | 86 | 0 | 
O=C1C=C(c2ccc(C(=O)/C=C/c3ccc4ccccc4c3)cc2)C(O)O1 (centres unmarked) [Example 30, (E)-5-Hydroxy-4-(4-(3-(2-naphthyl)-1-oxo-2-propenyl)phenyl)-2(5H)-furanone] | 5.15 | 92 | 66 | 80
CCCCCC/C=C/c1ccc(C2=CC(=O)OC2O)cc1 (centres unmarked) [Example 35, (E)-5-Hydroxy-4-(4-(1-octenyl)phenyl)-2(5H)-furanone] | 5.30 | 100 | 30 | 
O=C1C=C(c2ccc(/C=C/CCc3ccccc3)cc2)C(O)O1 (centres unmarked) [Example 36, (E)-5-Hydroxy-4-(4-(4-phenyl-1-butenyl)phenyl)-2(5H)-furanone] | 4.62 | 84 | 37 | 
C=CC(CCCCC)Oc1ccc(C2=CC(=O)OC2O)cc1 (centres unmarked) [Example 37, 5-Hydroxy-4-(4-((1-ethenylhexyl)oxy)phenyl)-2(5H)-furanone] | 4.70 | 93 | 34 | 
CCCCC/C=C/Cc1cc(C2=CC(=O)OC2O)ccc1O (centres unmarked) [Example 38, (E)-5-Hydroxy-4-(4-hydroxy-3-(2-octenyl)phenyl)-2(5H)-furanone] |  | 85 | 78 | 27
CC1=C(CCC(C)Oc2ccc(C3=CC(=O)OC3O)cc2)C(C)(C)CCC1 (centres unmarked) [Example 39, (E)-5-Hydroxy-4-(4-((1-methyl-3-(2,6,6-trimethyl-1-cyclohexen-1-yl)propyl)oxy)phenyl)-2(5H)-furanone] | 4.70 | 95 | 48 | 94
CCCCC/C=C\C/C=C\CCCCCCCCOc1cccc(C2=CC(=O)OC2O)c1 (centres unmarked) [Example 40, (Z,Z)-5-Hydroxy-4-((3-(octadeca-9,12-dienyl)oxy)phenyl)-2(5H)-furanone] | 5.15 | 100 | 80 | 
C=CCc1ccc(C2=CC(=O)OC2O)cc1O (centres unmarked) [Example 41, 5-Hydroxy-4-(3-hydroxy-4-(2-propenyl)phenyl)-2(5H)-furanone] |  | 0 | 64 | 
O=C1C=C(c2ccccc2)C(O)O1 (centres unmarked) [Example 42, 5-Hydroxy-4-phenyl-2(5H)-furanone] |  | 9 | 45 | 
CC1=C(C/C=C(\C)COc2ccc(SC3=CC(=O)OC3O)cc2)C(C)(C)CCC1 (centres unmarked) [Example 67, (E)-5-Hydroxy-4-(4-(2-methyl-4-(2,6,6-trimethyl-1-cyclohexen-1-yl)-2-butenyloxy)phenylthio)-2(5H)-furanone] | 6.30 | 98 |  | 
O=C1C=C(Sc2ccc(Br)cc2)C(O)O1 (centres unmarked) [Example 68, 5-Hydroxy-4-((4-bromophenyl)thio)-2(5H)-furanone] |  | 0 |  | 
CCCCCCCCOc1ccc(C2=CC(=O)OC2O)cn1 (centres unmarked) [Example 69, 5-Hydroxy-4-(6-octyloxy-3-pyridyl)-2(5H)-furanone] |  | 52 |  | 
CCCCCCCCSc1nc(C2=CC(=O)OC2O)cs1 (centres unmarked) [Example 70, 5-Hydroxy-4-(2-(octylthio)-4-thiazolyl)-2(5H)-furanone] |  | 70 |  | 
